Values after ≈ are worked out from the molar mass of the structure shown. Read-outs that look alike come from different tables or passages of the source. Peptide text beside a SMILES is read from it.
How the values were obtained:
Enterobacter aerogenes = test: microbe, parasite or virus in culture; assay type: cell-based; details: MHB medium
Procedure: (§1) The antimicrobial assay was performed according to a modified National Committee for Clinical Laboratory Standards (NCCLS) protocol ([41], [42]). Briefly, 5 × 10^5 CFU/mL bacterial cells were treated with various peptide concentrations and incubated at 37 ± 2°C for 16 to 20 h. The lowest concentration with clear wells was recorded as the MIC for each test molecule. The clear wells were further plated in Mueller-Hinton agar (MHA) plates, followed by incubation overnight at 37 ± 2°C. After plating, the lowest concentration at which no growth was observed was recorded as the MBC. For the serum sensitivity assay, the antimicrobial activity of the peptides was tested in medium containing 50% human serum ([43], [44]).

Escherichia coli = test: microbe, parasite or virus in culture; assay type: cell-based
Procedure: as §1

[1] = test system: NDM-1 Klebsiella pneumoniae; test: microbe, parasite or virus in culture; assay type: cell-based
Procedure: as §1

Pseudomonas aeruginosa = test: microbe, parasite or virus in culture; assay type: cell-based
Procedure: as §1

Salmonella enterica = test: microbe, parasite or virus in culture; assay type: cell-based; details: MHB medium
Procedure: as §1

MDR A. baumannii 1019 = test: microbe, parasite or virus in culture; assay type: cell-based, Acinetobacter baumannii
Procedure: as §1

MDR A. baumannii 1033 = test: microbe, parasite or virus in culture; assay type: cell-based, Acinetobacter baumannii; details: for MBC: read-out: MBC; for MIC: read-out: MIC
Procedure: as §1

MDR A. baumannii 14B0091 = test: microbe, parasite or virus in culture; assay type: cell-based, Acinetobacter baumannii
Procedure: as §1

MDR A. baumannii 1607 = test: microbe, parasite or virus in culture; assay type: cell-based, Acinetobacter baumannii
Procedure: as §1

MDR A. baumannii 1702 = test: microbe, parasite or virus in culture; assay type: cell-based, Acinetobacter baumannii; details: for MBC: read-out: MBC; for MIC: read-out: MIC
Procedure: as §1

MDR A. baumannii 2088 = test: microbe, parasite or virus in culture; assay type: cell-based, Acinetobacter baumannii
Procedure: as §1

MDR A. baumannii 2962 = test: microbe, parasite or virus in culture; assay type: cell-based, Acinetobacter baumannii
Procedure: as §1

MDR A. baumannii 2982 = test: microbe, parasite or virus in culture; assay type: cell-based, Acinetobacter baumannii
Procedure: as §1

MDR A. baumannii 2997 = test: microbe, parasite or virus in culture; assay type: cell-based, Acinetobacter baumannii; details: for MBC: read-out: MBC; for MIC: read-out: MIC
Procedure: as §1

MDR A. baumannii 2998 = test: microbe, parasite or virus in culture; assay type: cell-based, Acinetobacter baumannii
Procedure: as §1

MDR A. baumannii 3618 = test: microbe, parasite or virus in culture; assay type: cell-based, Acinetobacter baumannii
Procedure: as §1

MDR A. baumannii 921 = test: microbe, parasite or virus in culture; assay type: cell-based, Acinetobacter baumannii
Procedure: as §1

human red blood cells = assay type: cell-based
Procedure: The hemolytic assay was performed after approval from the institutional ethics committee (Academia Sinica Institutional Review Board [IRB]; ID no. AS-IRB02-111075). Blood was collected from healthy humans, and 50 μL of a 2% blood cell suspension in normal saline was treated with an equal volume of peptide at different concentrations. The mixture was then incubated at 37 ± 2°C for 1 h. Next, the cell suspension was centrifuged at 1,000 × g for 10 min. Percent hemolysis was estimated by the absorbance of treated and control supernatant samples at 540 nm ([23], [44]).

[2] = test system: human keratinocyte (HaCaT); test: alamarBlue cytotoxicity assay; assay type: cell-based; details: at 0.78 μM, 24 h
Procedure: (§2) (i) Cell culture. Human skin keratinocytes (HaCaT), human kidney (HK-2), and RAW 264.7 macrophage cells were obtained from the Bioresource Collection and Research Center (BCRC, Hsinchu, Taiwan). HaCaT and […] macrophage cells were cultured in Dulbecco’s modified Eagle’s medium (DMEM, Thermo Fischer, MA, USA.) supplemented with 10% FBS, penicillin (100 U/mL), and streptomycin (100 μg/mL) at 37°C under 5% CO2. HK-2 cells were cultured in glucose-free Keratinocyte serum-free medium (K-SFM) supplemented with 0.05 mg/mL bovine pituitary extract (BPE), 5 ng/mL EGF, 100 U/mL penicillin, and […] streptomycin at 37°C in 5% CO2 ([49]).
(§3) In vitro toxicity assay. The cytotoxicity of TP4-3 was evaluated by an alamarBlue assay. HaCaT, HK-2, and RAW 264.7 macrophage cells were seeded at densities of 1 × 10^4 cells/well in 96-well cell plates and treated with the indicated concentrations of TP4 and TP4-3 for 24 h (0.78 to 100 μM). Cells treated with 0.1% Triton X-100 and culture medium served as negative and positive-control groups, respectively. After incubation, the cells were washed and incubated for 2 h at 37°C with 90 μL Dulbecco’s modified Eagle medium (DMEM) containing 10 μL alamarBlue reagent. Fluorescence was recorded using a Spectra Max i3 Multi-Mode detection platform (Molecular Devices, San Jose, CA) to measure cell viability ([50], [51]).

human kidney cell (HK-2) = test: alamarBlue cytotoxicity assay; assay type: cell-based; details: at 1.56 μM, 24 h
Procedure: as §2, §3

[3] = test system: murine macrophage (RAW 264.7); test: alamarBlue cytotoxicity assay; assay type: cell-based; details: at 1.56 μM, 24 h
Procedure: as §2, §3

[4] = HS, 50% human serum containing MHB medium
[5] = HS, MH medium containing 50% human serum
[6] = HS, MH medium containing 50% human serum, read-out: MBC

CC[C@H](C)[C@H](NC(=O)[C@H](CCCCN)NC(=O)[C@H](CCC(=O)O)NC(=O)[C@H](CCCCN)NC(=O)[C@H](CO)NC(=O)[C@H](CCCCN)NC(=O)[C@H](CCCNC(=N)N)NC(=O)[C@H](Cc1ccccc1)NC(=O)[C@H](Cc1ccccc1)NC(=O)[C@H](CC(=O)O)NC(=O)CNC(=O)[C@H](CC(C)C)NC(=O)[C@@H](N)CC(C)C)C(=O)NCC(=O)N[C@@H](CCCCN)C(=O)N[C@@H](CCC(=O)O)C(=O)N[C@@H](Cc1ccccc1)C(=O)N[C@@H](CCCCN)C(=O)N[C@@H](CCCNC(=N)N)C(=O)N[C@H](C(=O)N[C@H](C(=O)N[C@@H](CCC(N)=O)C(=O)N[C@@H](CCCNC(=N)N)C(=O)N[C@H](C(=O)N[C@@H](CCCCN)C(=O)N[C@@H](CC(=O)O)C(=O)N[C@@H](Cc1ccccc1)C(=O)N[C@@H](CC(C)C)C(=O)N[C@@H](CCCNC(=N)N)C(=O)N[C@@H](CC(N)=O)C(=O)N[C@@H](CC(C)C)C(=O)N[C@H](C(=O)N1CCC[C@H]1C(=O)N[C@@H](CCCNC(=N)N)C(=O)N[C@H](C(=O)N[C@@H](CCC(=O)O)C(=O)N[C@@H](CO)C(=O)O)[C@@H](C)O)C(C)C)[C@@H](C)CC)C(C)C)[C@@H](C)CC [LL-37]
MBC (Enterobacter aerogenes): 6.25 µM (≈ 28.1 µg/mL)
MIC (Enterobacter aerogenes): 6.25 µM (≈ 28.1 µg/mL)
MBC (Escherichia coli; [4]): >25 µM
MIC (Escherichia coli; [4]): >25 µM
MBC (Escherichia coli; MHB medium): 6.25 µM (≈ 28.1 µg/mL)
MIC (Escherichia coli; MHB medium): 6.25 µM (≈ 28.1 µg/mL)
MBC [1, 4]: >25 µM
MIC [1, 4]: >25 µM
MBC ([1]; MHB medium): 25 µM (≈ 112 µg/mL)
MIC ([1]; MHB medium): 25 µM (≈ 112 µg/mL)
MBC (Pseudomonas aeruginosa; HS, 50% human serum containing MHB medium, read-out: MBC): >25 µM
MIC (Pseudomonas aeruginosa; HS, 50% human serum containing MHB medium, read-out: MIC): >25 µM
MBC (Pseudomonas aeruginosa; MHB medium): 6.25−12.5 μM
MIC (Pseudomonas aeruginosa; MHB medium): 6.25−12.5 μM
MBC (Salmonella enterica): >25 µM
MIC (Salmonella enterica): >25 µM
MBC (MDR A. baumannii 1019; [5]): >25 µM
MIC (MDR A. baumannii 1019; [5]): >25 µM
MBC (MDR A. baumannii 1019; MHB medium): 6.25 µM (≈ 28.1 µg/mL)
MIC (MDR A. baumannii 1019; MHB medium): 6.25 µM (≈ 28.1 µg/mL)
MBC (MDR A. baumannii 1033; [5]): >25 µM
MIC (MDR A. baumannii 1033; [5]): >25 µM
MBC (MDR A. baumannii 1033; MHB medium): 6.25 µM (≈ 28.1 µg/mL)
MIC (MDR A. baumannii 1033; MHB medium): 6.25 µM (≈ 28.1 µg/mL)
MBC (MDR A. baumannii 14B0091; [5]): >25 µM
MIC (MDR A. baumannii 14B0091; [5]): >25 µM
MBC (MDR A. baumannii 14B0091; MHB medium): 3.13 µM (≈ 14.1 µg/mL)
MIC (MDR A. baumannii 14B0091; MHB medium): 3.13 µM (≈ 14.1 µg/mL)
MIC (MDR A. baumannii 1607; [5]): >25 µM
MBC (MDR A. baumannii 1607; [6]): >25 µM
MBC (MDR A. baumannii 1607; MHB medium): 3.13 to 6.25 µM
MIC (MDR A. baumannii 1607; MHB medium): 3.13 µM (≈ 14.1 µg/mL)
MBC (MDR A. baumannii 1702; [5]): >25 µM
MIC (MDR A. baumannii 1702; [5]): >25 µM
MBC (MDR A. baumannii 1702; MHB medium): 3.13 µM (≈ 14.1 µg/mL)
MIC (MDR A. baumannii 1702; MHB medium): 3.13 µM (≈ 14.1 µg/mL)
MBC (MDR A. baumannii 2088; [6]): >25 µM
MIC (MDR A. baumannii 2088; HS, MH medium containing 50% human serum, read-out: MIC): >25 µM
MBC (MDR A. baumannii 2088; MHB medium): 3.13 to 6.25 µM
MIC (MDR A. baumannii 2088; MHB medium): 3.13 to 6.25 µM
MBC (MDR A. baumannii 2962; [5]): >25 µM
MIC (MDR A. baumannii 2962; [5]): >25 µM
MBC (MDR A. baumannii 2962; MHB medium): 6.25 µM (≈ 28.1 µg/mL)
MIC (MDR A. baumannii 2962; MHB medium): 6.25 µM (≈ 28.1 µg/mL)
MBC (MDR A. baumannii 2982; [5]): >25 µM
MIC (MDR A. baumannii 2982; [5]): >25 µM
MBC (MDR A. baumannii 2982; MHB medium): 12.5 µM (≈ 56.2 µg/mL)
MIC (MDR A. baumannii 2982; MHB medium): 6.25 µM (≈ 28.1 µg/mL)
MBC (MDR A. baumannii 2997; [5]): >25 µM
MIC (MDR A. baumannii 2997; [5]): >25 µM
MBC (MDR A. baumannii 2997; MHB medium): 1.56 µM (≈ 7.01 µg/mL)
MIC (MDR A. baumannii 2997; MHB medium): 1.56 µM (≈ 7.01 µg/mL)
MIC (MDR A. baumannii 2998; [5]): >25 µM
MBC (MDR A. baumannii 2998; [6]): >25 µM
MBC (MDR A. baumannii 2998; MHB medium): 6.25 to 12.5 µM
MIC (MDR A. baumannii 2998; MHB medium): 6.25 µM (≈ 28.1 µg/mL)
MBC (MDR A. baumannii 3618; [5]): >25 µM
MIC (MDR A. baumannii 3618; [5]): >25 µM
MBC (MDR A. baumannii 3618; MHB medium): 3.13 µM (≈ 14.1 µg/mL)
MIC (MDR A. baumannii 3618; MHB medium): 3.13 µM (≈ 14.1 µg/mL)
MBC (MDR A. baumannii 921; [5]): >25 µM
MIC (MDR A. baumannii 921; [5]): >25 µM
MBC (MDR A. baumannii 921; MHB medium): 6.25 µM (≈ 28.1 µg/mL)
MIC (MDR A. baumannii 921; MHB medium): 6.25 µM (≈ 28.1 µg/mL)

CC[C@H](C)[C@H](NC(=O)[C@H](C)NC(=O)[C@H](CCCCN)NC(=O)CNC(=O)[C@H](C)NC(=O)[C@H](CO)NC(=O)[C@H](Cc1ccccc1)NC(=O)[C@H](CC(C)C)NC(=O)CNC(=O)CNC(=O)[C@@H](NC(=O)[C@@H](NC(=O)[C@H](Cc1cnc[nH]1)NC(=O)[C@H](Cc1cnc[nH]1)NC(=O)[C@@H](NC(=O)[C@@H](N)Cc1ccccc1)[C@@H](C)CC)[C@@H](C)CC)[C@@H](C)CC)C(=O)N[C@@H](Cc1cnc[nH]1)C(=O)N[C@@H](CCCNC(=N)N)C(=O)N[C@@H](CC(C)C)C(=O)N[C@H](C(=O)N[C@@H](CCCNC(=N)N)C(=O)N[C@@H](CCCNC(=N)N)C(=O)N[C@@H](CCCNC(=N)N)C(=O)N[C@@H](CCCNC(=N)N)C(=O)N[C@@H](CCCNC(=N)N)C(=O)O)[C@@H](C)CC [TP4, tilapia piscidin 4] (H-FIHHIIGGLFSAGKAIHRLIRRRRR-OH)
15% hemolysis concn (human red blood cells): <3.13 µM
cell death [2]: substantial cell death
cell death (human kidney cell (HK-2)): substantial cell death
cell death [3]: substantial cell death

— publication PMC10101059, “Rational Design of Stapled Antimicrobial Peptides to Enhance Stability and In Vivo Potency against Polymicrobial Sepsis” (Microbiology Spectrum, 2023)
